Measured values as given in patent US20120010266A1, “TBC1D7 AS TUMOR MARKER AND THERAPEUTIC TARGET FOR CANCER” (Oncotherapy Science Inc.,, priority 2008, published 2012).
Like-named read-outs stand apart in the source and are kept apart here. Values belong to the molecule of their own block, whether it stands above or below them. No end group written: not given here.

Assays:
[1] = tested on: normal human lung fibroblast-derived CCD19Lu cells; format: cell-based; conditions: CCD19Lu cells in which TBC1D7 expression was hardly detectable, peptide 10, 15 or 20 microM for 3 days
Description: (§1) Twenty-amino-acid sequence derived from minimized TSC1-binding domain in TBC1D7 (codons 112-171; see FIG. 5B) was covalently linked at its N-terminus to a membrane transducing 11 poly-arginine sequence (11R) as described elsewhere (Hayama S, Daigo Y, Kato T, et al. Cancer Res 2006; 66:10339-48, Hayama S, Daigo Y, Yamabuki T, et al. Cancer Res 2007; 67:4113-22). Three dominant-negative peptides were synthesized covering the codons 112-171 region: 11R-TBC112-131, RRRRRRRRRRR-GGG-[…] (SEQ ID NO.:23); 11R-TBC132-151, RRRRRRRRRRR-GGG-[…] (SEQ ID NO.:24); 11R-TBC152-171 RRRRRRRRRRR-GGG-[…] (SEQ ID NO.:25). Peptides were purified by preparative reverse-phase high-performance liquid chromatography to make >95% purity. […] The viability of cells was evaluated by MTT assay at 3 days after the treatment.

[2] = tested on: LC319 and A549 cell lines; assay: Colony formation assay (Giemsa staining) of lung cancer cells transfected with siRNAs against TBC1D7; format: cell-based, human; conditions: cultured 7 days after transfection, siRNA 100 nM
Method: (§2) Small interfering RNA (siRNA) duplexes (Dharmacon, Inc.) (100 nM) were transfected into a NSCLC cell line, A549 and esophageal cancer cell line, TE9, using […] Lipofectamine 2000 (Invitrogen) following the manufacturer's protocol. The transfected cells were cultured for 7 days, and the number of colonies was counted by Giemsa staining, and viability of cells was evaluated by 3-(4,5-dimethylthiazol-2-yl)-2,5-diphenyltetrazolium bromide (MTT) assay (cell counting kit-8 solution; Dojindo Laboratories), at 7 days after transfection. To confirm suppression of TBC1D7 expression, semiquantitative RT-PCR was carried out with synthesized primers specific for TBC1D7 described above. SiRNA duplexes against human TBC1D7, si-TBC1D7-#1: siGenome duplexes 1 [D-021140-01: […]] (SEQ ID NO: 3 for target sequence SEQ ID NO.: 18) and si-TBC1D7-#2: siGenome duplexes 4 [D-021140-4: […]] […]
(§3) Small interfering RNA (siRNA) duplexes (100 nM) were transfected into a NSCLC cell line, A549 and LC319, using 24 microL of Lipofectamine 2000 (Invitrogen) following the manufacturer's protocol. The transfected cells were cultured for 7 days, and the number of colonies was counted by Giemsa staining, and viability of cells was evaluated by 3-(4,5-dimethylthiazol-2-yl)-2,5-diphenyltetrazolium bromide (MTT) assay (cell counting kit-8 solution; Dojindo Laboratories), at 7 days after transfection. […]

[3] = tested on: LC319 and A549 cell lines; assay: MTT assay of lung cancer cells transfected with siRNAs against TBC1D7; format: cell-based, human; conditions: 7 days after transfection, siRNA 100 nM
Method: as §2, §3

TBC1D7 = assay: RNA interference assay: knockdown of TBC1D7 expression, semiquantitative RT-PCR; format: cell-based, human; conditions: LC319 and A549 cells; siRNA duplexes 100 nM transfected; versus control siRNAs (si-EGFP, si-LUC)
Method: Total RNA was extracted from cultured cells and clinical tissues using Trizol reagent (Life Technologies, Inc.) according to the manufacturer's protocol. Extracted RNAs were treated with DNase I (Nippon Gene) and reversely-transcribed using oligo (dT) primer and SuperScript II reverse transcriptase (Invitrogen). […]
as §3, with “duplexes (Dharmacon, Inc.)” for “duplexes”, “esophageal cancer cell line, TE9,” for “LC319,”, “[…]” for “24 microL”
as §3

lung cancer LC319 cells [4] = assay: Dominant-negative peptide assay, MTT, LC319 cells; format: cell-based, human; conditions: peptide 10, 15 or 20 microM for 3 days
Description: as §1

lung cancer LC319 cells [5] = assay: Flow cytometric cell cycle analysis after si-TBC1D7 transfection; format: cell-based, human; conditions: 48 to 96 hours after transfection
Method: Cells were collected in PBS, and fixed in 70% cold ethanol for 30 minutes. After treatment with 100 micro g/mL RNase (Sigma/Aldrich, St. Louis, Mo.), the cells were stained with 50 micro g/mL propidium iodide (Sigma/Aldrich, St. Louis, Mo.) in PBS. Flow cytometry was done on a Becton Dickinson FACScan and analyzed by ModFit software (Verity Software House, Inc., Topsham, Me.). The cells selected from at least 10,000 ungated cells were analyzed for DNA content.

[6] = target: T1, endogenous TSC1 protein (human, lung cancer LC319 cells) (human, UniProt Q92574 1-1164, limits assumed); assay: summary of the immunoprecipitation results in the discussion
T1 construct: Endogenous protein in LC319 cell extracts
T1 sequence: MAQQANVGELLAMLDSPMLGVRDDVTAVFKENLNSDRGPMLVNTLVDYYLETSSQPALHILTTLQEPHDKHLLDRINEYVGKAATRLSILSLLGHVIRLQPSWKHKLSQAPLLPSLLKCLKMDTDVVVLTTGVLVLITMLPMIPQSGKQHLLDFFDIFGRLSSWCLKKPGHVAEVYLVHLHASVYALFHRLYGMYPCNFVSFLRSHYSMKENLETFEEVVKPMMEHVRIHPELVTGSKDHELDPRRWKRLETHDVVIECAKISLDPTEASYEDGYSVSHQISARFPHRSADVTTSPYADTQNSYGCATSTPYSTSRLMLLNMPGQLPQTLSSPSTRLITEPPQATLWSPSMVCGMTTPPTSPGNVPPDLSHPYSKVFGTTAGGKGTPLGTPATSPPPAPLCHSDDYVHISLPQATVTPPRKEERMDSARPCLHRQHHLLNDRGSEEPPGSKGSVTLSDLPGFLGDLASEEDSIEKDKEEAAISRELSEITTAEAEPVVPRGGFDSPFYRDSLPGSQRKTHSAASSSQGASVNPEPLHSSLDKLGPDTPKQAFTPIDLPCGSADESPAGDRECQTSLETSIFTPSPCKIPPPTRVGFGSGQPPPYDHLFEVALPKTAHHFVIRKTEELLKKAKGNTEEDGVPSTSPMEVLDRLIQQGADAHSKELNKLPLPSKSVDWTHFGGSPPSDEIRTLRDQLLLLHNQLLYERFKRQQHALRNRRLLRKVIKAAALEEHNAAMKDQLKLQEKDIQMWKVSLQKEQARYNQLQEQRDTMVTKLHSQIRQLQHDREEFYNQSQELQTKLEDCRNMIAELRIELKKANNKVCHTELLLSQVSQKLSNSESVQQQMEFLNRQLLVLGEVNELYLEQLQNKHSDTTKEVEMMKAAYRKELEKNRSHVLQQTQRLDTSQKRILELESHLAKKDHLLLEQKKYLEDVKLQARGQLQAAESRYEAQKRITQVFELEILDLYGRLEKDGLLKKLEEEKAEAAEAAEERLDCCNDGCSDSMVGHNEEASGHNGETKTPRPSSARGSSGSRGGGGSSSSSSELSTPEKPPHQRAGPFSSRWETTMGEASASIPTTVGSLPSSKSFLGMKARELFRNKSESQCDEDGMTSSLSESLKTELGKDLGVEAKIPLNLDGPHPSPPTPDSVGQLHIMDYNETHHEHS

[7] = target: T1, endogenous TSC1 protein (human, lung …); assay: immunoprecipitation experiments using LC319 cells, as the legend of FIG. 5A says
Description: FIG. 5 depicts identification of TSC1-interacting region in TBC1D7 and inhibition of growth of lung cancer cells by dominant-negative peptides of TBC1D7. A, Left panel, Schematic drawing of six N-terminal Flag-tagged TBC1D7 partial protein constructs lacking either or both of the terminal regions. Right panels, Identification of the region in TBC1D7 that binds to TSC1 by immunoprecipitation experiments using LC319 cells. The TBC1D7₁₁₂₋₁₇₁ construct, which corresponds to a center region in TBC domain, was indicated to be TSC1-interacting region. B, Left top panel, Schematic drawing of three cell permeable peptides of TBC1D7 covering TBC1D7₁₁₂₋₁₇₁ that corresponds to the TSC1-interacting region in TBC1D7. B, Right top panels, Reduction of the complex formation between endogenous TSC1 and endogenous TBC1D7 proteins, detected by immunoprecipitation assay in LC319 cells that were treated with the 11R-TBC₁₅₂₋₁₇₁ peptides. C, MTT assay showing growth suppressive effect of 11R-TBC₁₅₂₋₁₇₁ peptides that were introduced into LC319 cells that expressed both TBC1D7 and TSC1 proteins. Bars, SD of triplicate assays. D, Left panels, Expressions of TBC1D7 and TSC1 proteins in lung cancer cell line LC319 and normal human lung fibroblast-derived CCD19Lu cells, examined by western blot analysis. […]

Molecule: RRRRRRRRRRRGGGYWITRRFVNQLNTKYRDSLP [11R-TBC1D7152-171]
cell viability of normal cells (off-target toxic effect), MTT assay [1]: no effect on cell viability
cell viability of normal cells (off-target toxic effect), MTT assay ([1]; listed as 11R-TBC152-171): no off-target effect

Molecule: si-TBC1D7-#2: siRNA duplex against human TBC1D7, GAUAAAGUUGUGAGUGGAUUU (SEQ ID NO: 4, target SEQ ID NO: 19), purchased from Dharmacon (chemistry not given here)
number of cells / colonies, colony-formation assay [2]: drastic reduction in the number of cells
number / viability of cells, MTT assay (cell growth) [3]: drastic reduction in the number of cells
knockdown effect on TBC1D7 expression (RT-PCR) (TBC1D7): knockdown effect was confirmed

Molecule: RRRRRRRRRRR-GGG-YQLESGKLPRSPSFPLEPDD (RRRRRRRRRRRGGGYQLESGKLPRSPSFPLEPDD; a dominant-negative peptide) [11R-TBC1D7112-131]
cell viability / cell growth, MTT assay (lung cancer LC319 cells [4]): no effect on cell growth

Molecule: si-TBC1D7-#1: siRNA duplex against human TBC1D7, GAACAGUGCAGAGAAGAUAUU (SEQ ID NO: 3, target SEQ ID NO: 18), purchased from Dharmacon (chemistry not given here)
number of cells / colonies, colony-formation assay [2]: drastic reduction in the number of cells
number / viability of cells, MTT assay (cell growth) [3]: drastic reduction in the number of cells
number of cells in S phase (lung cancer LC319 cells [5]): continuously decreased
proportion of the cells in G2/M phase (lung cancer LC319 cells [5]): increased
knockdown effect on TBC1D7 expression (RT-PCR) (TBC1D7): knockdown effect was confirmed

Molecule: RRRRRRRRRRR-GGG-EVFLAIAKAMEEMVEDSVDC (RRRRRRRRRRRGGGEVFLAIAKAMEEMVEDSVDC; a dominant-negative peptide) [11R-TBC1D7132-151]
cell viability / cell growth, MTT assay (lung cancer LC319 cells [4]): no effect on cell growth

binding result [6]: binds
B1: endogenous TBC1D7 protein (human, lung cancer LC319 cells) (other)
chain: MTEDSQRNFRSVYYEKVGFRGVEEKKSLEILLKDDRLDTEKLCTFSQRFPLPSMYRALVWKVLLGILPPHHESHAKVMMYRKEQYLDVLHALKVVRFVSDATPQAEVYLRMYQLESGKLPRSPSFPLEPDDEVFLAIAKAMEEMVEDSVDCYWITRRFVNQLNTKYRDSLPQLPKAFEQYLNLEDGRLLTHLRMCSAAPKLPYDLWFKRCFAGCLPESSLQRVWDKVVSGSCKILVFVAVEILLTFKIKVMALNSAEKITKFLENIPQDSSDAIVSKAIDLWHKHCGTPVHSS
notes: Endogenous protein in cell extracts; also called TBC1 domain family, member 7

binding result [7]: binds
B2: TBC112-171, N-terminal Flag-tagged TBC1D7 partial protein construct (other, not shown: small tags and cut ends)
chain: YQLESGKLPRSPSFPLEPDDEVFLAIAKAMEEMVEDSVDCYWITRRFVNQLNTKYRDSLP
